In paper PMC6309140, “Synthesis and Evaluation of a New Type of Small Molecule Epigenetic Modulator Containing Imidazo[1,2-b][1,2,4]triazole Motif” (Frontiers in Chemistry, 2018):
Where two headings read alike, the source gives them in different places.

Experiments:
[1] = system: EGFP reporter gene silenced by DNA methylation (B2-17 cells); experiment: Compound effective assay: derepression of EGFP reporter in B2-17 reporter cells (image-based, titration); assay type: cell-based; conditions: for Emax: 72 h, read-out: Maximal RGFP% (maximal percentage of EGFP+ cells in the dose-response curve); for Emax / EC50 / Maximal RGFP% (maximal percentage of EGFP+ cells in the dose-response curve): B2-17 cells, 72 h treatment; for EC50: dose-response of EGFP+ cells, read-out: EC50 (relative half maximal effect concentration); for activity of derepressing the EGFP reporter gene silenced by DNA methylation (in words): compared with hit compound LX-3
Description: (§1) To identify novel small molecules targeting gene repression, we devised an image-based high-throughput screening system using the engineered HEK 293 F cell (termed as B2-17 cells) as report cell line. A chemical library containing 308,251 small molecules was screened in this system. Purposed for unbiased compound screening, this library had been used in a variety of studies (Sun et al., [2012]; Wang et al., [2013]; Dong et al., [2015]; Li et al., [2016]). Hundred and fifty eight compounds which reactivated reporter genes in more than half of cells were selected as hits. Next, we performed titration experiments for all these hits in the B2-17 cell line. The efficacy of each compound was evaluated by its maximal percentage of EGFP^+ cells in the dose-response curve (maximal RGFP) and relative half maximal effect concentration (EC50). The toxicity of the hits was also tested in parallel, measured by number of viable cells in each treatment. The assay is based on quantitative analysis of ATP, an indicator of metabolically active cells. For each compound, we calculated the relative half maximal growth inhibitory concentration (IC50), based on the abovementioned assay.
Procedure for cell culture and establishment of the reporter cell line were reported in our previously published paper (Li et al., [2018]).
Before plating cells, 384-well plates (ViewPlate, PerkinElmer) were coated with PDL (poly-D-lysine, Sigma). For each well, 1,300 B2-17 cells were plated by using a Matrix Wellmate microplate dispenser (Thermo Scientific). Then, 0.25 μL of compound was added to each well by using a versatile pipetting robot, the Biomek FX workstation (Beckman Coulter), to give a final compound concentration of 5 μM. After treatment for 72 h, the cell nuclei were stained by Hoechst 33342 (Sigma) before imaging.
The cells were imaged with Opera LX (PerkinElmer, three views per well by using 10 x (air) objective lens). Images were analyzed with the Columbus system, the mean percentage of EGFP+ cells (RGFP) was obtained to extrapolate the number of EGFP expressing cells and Hoechst-stained nuclei.
For the titration assay, the positive compounds were diluted in DMSO at concentrations ranging from 0.625 to 4 mM. Then, the B2-17 cells were treated by gradient compound and imaged as described before.
For each compound, a dose-response series was generated by using Origin 6.0 Pro software. The dot plot was fit by a DoseResp curve and then the EC50 was calculated.

HEK 293 F cells = experiment: Viability assays (CellTiter-Glo, ATP); assay type: cell-based; conditions: viable cells by ATP quantitation, 3 days incubation, Figure 2 says B2-17 cells, method says HEK 293 F cells, read-out: IC50 (relative half maximal growth inhibitory concentration)
Description: as §1
HEK 293 F cells were plated in 384-well, flat-bottom, tissue culture dishes (Corning) and treated with compounds, incubated 3 days, and assayed for viability using the CellTiter-Glo Luminescent Cell Viability Assay (Promega) according to the manufacturer's protocol. The […] with an EnSight plate reader (Perkin Elmer). Data were normalized to the untreated control (100% viability). Each treatment was tested in two independent assays, each containing 3 replicates. The titration-viability curves of each compound were also generated by using Origin 6.0 Pro software.

p38 MAPK pathway = system: p38 MAPK pathway; parameters: method as in Li et al., 2018; conditions: multiple cell types; ref Li et al., 2018; cited from earlier work

| Molecule | Emax [1] | EC50 [1] | IC50 (HEK 293 F cells; HEK293F, 72 h) | activation of the p38 MAPK pathway (p38 MAPK pathway) | activity of derepressing the EGFP reporter gene silenced by DNA methylation (in words) [1] | Maximal RGFP% (maximal percentage of EGFP+ cells in the dose-response curve) [1] | IC50 (HEK 293 F cells) |
| --- | --- | --- | --- | --- | --- | --- | --- |
| Cc1n[nH]c(Nc2ccc(/N=N/c3ccccc3)cc2)c1[N+](=O)[O-] [LX-5] | 89% | 4.1 µM | 4.2 µM | selectively activate the p38 MAPK pathway | – | – | – |
| O=C(Cn1c2ccccc2n2nc(-c3ccccc3)nc12)c1ccc(Br)cc1 [22a, 1-(4-bromophenyl)-2-(2-phenyl-4H-benzo[4,5]imidazo[1,2-b][1,2,4]triazol-4-yl)ethan-1-one] | 6% | – | 4.4 µM | – | decreased significantly or even disappeared | – | – |
| 3-(4-bromophenyl)-1-(2-(thiazol-2-yl)-4H-benzo[4,5] imidazo[1,2-b][1,2,4]triazol-4-yl)propan-1-one [31c] | – | – | – | – | loss of activity | 9.0% | 15.9 µM |
| C=CCc1cc(/C=N/Nc2ccc(Br)cc2)cc(OCC)c1OC [LX-1] | 72% | 1.9 µM | 8.5 µM | – | – | – | – |
| O=C(Cn1c2ccccc2n2nc(-c3nccs3)nc12)c1ccc(Br)cc1 [22c, 1-(4-bromophenyl)-2-(2-(thiazol-2-yl)-4H-benzo[4,5]imidazo[1,2-b][1,2,4]triazol-4-yl)ethan-1-one] | 48% | 4.5 µM | 5.3 µM | – | – | – | – |
| Nc1ccc(C(=O)Cn2c3ccccc3n3nc(-c4cccs4)nc23)cc1 [7i, 1-(4-aminophenyl)-2-(2-(thiophen-2-yl)-4H-benzo[4,5]imidazo[1,2-b][1,2,4]triazol-4-yl)ethan-1-one] | 19% | – | 5.3 µM | – | decreased to some extent | – | – |
| O=C(Cn1c2ccc(Br)cc2n2nc(-c3cccs3)nc12)c1ccc(Br)cc1 [17a, 2-(7-bromo-2-(thiophen-2-yl)-4H-benzo[4,5]imidazo[1,2-b][1,2,4]triazol-4-yl)-1-(4-bromophenyl)ethan-1-one] | 41% | 19.4 µM | 6.6 µM | – | significantly decreased | – | – |
| O=C(Cn1c2ccccc2n2nc(-c3ccc(Cl)s3)nc12)c1ccc(Br)cc1 [compound 29, 1-(4-bromophenyl)-2-(2-(5-chlorothiophen-2-yl)-4H-benzo[4,5]imidazo[1,2-b][1,2,4]triazol-4-yl)ethan-1-one] | 83% | 8.9 µM | 13.6 µM | – | little reduction of potency | – | – |
| Cc1cc2c(cc1C)n1nc(-c3cccs3)nc1n2CC(=O)c1ccc(Br)cc1 [14a, 1-(4-bromophenyl)-2-(6,7-dimethyl-2-(thiophen-2-yl)-4H-benzo[4,5]imidazo[1,2-b][1,2,4]triazol-4-yl)ethan-1-one] | 26% | 28 µM | 3.9 µM | – | significantly decreased | – | – |
| O=C(Cn1c2ccc(Br)cc2n2nc(-c3ccc(Br)s3)nc12)c1ccc(Br)cc1 [17c, 2-(7-bromo-2-(5-bromothiophen-2-yl)-4H-benzo[4,5]imidazo[1,2-b][1,2,4]triazol-4-yl)-1-(4-bromophenyl)ethan-1-one] | 28% | 21.8 µM | 3.8 µM | – | – | – | – |
| O=C(Cn1c2ccccc2n2nc(-c3cccs3)nc12)c1cccs1 [9c, 1-(thiophen-2-yl)-2-(2-(thiophen-2-yl)-4H-benzo[4,5]imidazo[1,2-b][1,2,4]triazol-4-yl)ethan-1-one] | 40% | 2.3 µM | 4.9 µM | – | – | – | – |
| COc1ccccc1-c1nc2n(CC(=O)c3ccc(Br)cc3)c3ccccc3n2n1 [22b, 1-(4-bromophenyl)-2-(2-(2-methoxyphenyl)-4H-benzo[4,5]imidazo[1,2-b][1,2,4]triazol-4-yl)ethan-1-one] | 21% | 6.8 µM | 3.3 µM | – | decreased significantly or even disappeared | – | – |
| O=C(Cn1c2ccccc2n2nc(Cc3ccccc3)nc12)c1ccc(Br)cc1 [22f, 2-(2-benzyl-4H-benzo[4,5]imidazo[1,2-b][1,2,4]triazol-4-yl)-1-(4-bromophenyl)ethan-1-one] | < 22% | 6.4 µM | 4.7 µM | – | – | – | – |
| O=C(Cn1c2ccccc2n2nc(-c3cccs3)nc12)c1c(F)c(F)c(F)c(F)c1F [7g, 1-(perfluorophenyl)-2-(2-(thiophen-2-yl)-4H-benzo[4,5]imidazo[1,2-b][1,2,4]triazol-4-yl)ethan-1-one] | 10% | – | 1.1 µM | – | significantly decreased | – | – |
| O=C(Cn1c2ccccc2n2nc(-c3cccs3)nc12)c1ccncc1 [9d, 1-(pyridin-4-yl)-2-(2-(thiophen-2-yl)-4H-benzo[4,5]imidazo[1,2-b][1,2,4]triazol-4-yl)ethan-1-one] | 35% | 13.6 µM | 6.5 µM | – | – | – | – |
| O=C(Cn1c2ccccc2n2nc(-c3cccs3)nc12)c1ccc(O)cc1 [7h, 1-(4-hydroxyphenyl)-2-(2-(thiophen-2-yl)-4H-benzo[4,5]imidazo[1,2-b][1,2,4]triazol-4-yl)ethan-1-one] | 56% | 5.8 µM | 16.7 µM | – | decreased to some extent | – | – |
| O=C(Cn1c2ccccc2n2nc(-c3cccs3)nc12)c1ccccc1 [7a, 1-phenyl-2-(2-(thiophen-2-yl)-4H-benzo[4,5]imidazo[1,2-b][1,2,4]triazol-4-yl)ethan-1-one] | 7% | – | 1.9 µM | – | lost | – | – |
| CCc1ccc(CNc2ccc(CNc3ncn[nH]3)cc2)cc1 [LX-2] | 67% | 2.2 µM | 7.8 µM | – | – | – | – |
| COc1ccc(NC(=O)c2ccco2)cc1NC(=O)c1ccc(-c2cccc([N+](=O)[O-])c2)o1 [LX-7] | 79% | 1.9 µM | 3.2 µM | – | – | – | – |
| (4-bromophenyl) (2-(thiazol-2-yl)-4H-benzo[4,5] imidazo[1,2-b][1,2,4]triazol-4-yl)methanone [31a] | – | – | – | – | disappeared | 4.0% | 7.8 µM |
| Cc1ccc(-c2ccc(-c3nc4n(CC(=O)c5ccc(Br)cc5)c5ccccc5n4n3)s2)cc1 [compound 25, 1-(4-bromophenyl)-2-(2-(5-(p-tolyl)thiophen-2-yl)-4H-benzo[4,5]imidazo[1,2-b][1,2,4]triazol-4-yl)ethan-1-one] | 61% | 29.9 µM | 10.9 µM | – | significant decrease or disappearance | – | – |
| O=C(Cn1c2ccccc2n2nc(-c3cccs3)nc12)c1nccs1 [9a, 1-(thiazol-2-yl)-2-(2-(thiophen-2-yl)-4H-benzo[4,5]imidazo[1,2-b][1,2,4]triazol-4-yl)ethan-1-one] | 30% | 4.7 µM | 8.7 µM | – | – | – | – |
| O=C(Cn1c2ccccc2n2nc(-c3ccccn3)nc12)c1ccc(Br)cc1 [22e, 1-(4-bromophenyl)-2-(2-(pyridin-2-yl)-4H-benzo[4,5]imidazo[1,2-b][1,2,4]triazol-4-yl)ethan-1-one] | 6% | – | 2.8 µM | – | – | – | – |
| O=C(Cn1c2ccc(Cl)cc2n2nc(-c3cccs3)nc12)c1ccc(Br)cc1 [compound 19, 1-(4-bromophenyl)-2-(7-chloro-2-(thiophen-2-yl)-4H-benzo[4,5]imidazo[1,2-b][1,2,4]triazol-4-yl)ethan-1-one] | 63% | 14.9 µM | 14.3 µM | – | significantly decreased | – | – |
